Results on four compounds are retold here after patent US20260297129A1, “PEPTIDES AS SELECTIVE IL-23 RECEPTOR INHIBITORS” (SANOFI, priority 2023, published 2026).

The structures appear in SMILES notation. ≈ marks a conversion by molar mass, not a printed value. Read-outs that look alike come from different tables or passages of the source. Numbered stars: 1 amine (or outer) side, 2 acyl side, 3 side chain; on linkers, the order of the positions; unused ones are H or OH. Bridge positions count the residues as written; N and C are the ends. Square brackets hold non-standard residues; d marks the D form. Peptide text beside a SMILES is read from it. * marks the point of attachment. Lys(Me,(CH2)4NMe(CH2)5CO) = CN(CCCCCC(=O)[*:3])CCCCN(C)CCCC[C@H](N[*:1])C(=O)[*:2]; Lys(Me,(CH2)4NMe(CH2)4CO) = CN(CCCCC(=O)[*:3])CCCCN(C)CCCC[C@H](N[*:1])C(=O)[*:2]; X3 = Cc1cccc2c(C[C@H](N[*:1])C(=O)[*:2])cn(C)c12; Trp(7-Me) = Cc1cccc2c(C[C@H](N)C(=O)O)c[nH]c12; NH(2-(3-pyridyl)ethyl) = c1cncc(CCN*)c1; αMeLys(Me2) = CN(C)CCCC[C@](C)(N)C(=O)O; 2Nal = N[C@@H](Cc1ccc2ccccc2c1)C(=O)O; 3Pal = N[C@@H](Cc1cccnc1)C(=O)O; Aun = NCCCCCCCCCCC(=O)O; Thp = NC1(C(=O)O)CCOCC1; Me2NCH2CH2 = CN(C)CC*; Aib = CC(C)(N)C(=O)O; Sar = CNCC(=O)O

The nature of data set [1]: Solubility of peptide compounds in buffer formulations (Table 5). Particulars: target 1 mg/ml. Format: physicochemical. Put shortly:
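Solubility was quantified by UHPLC-UV, comparing 1:10-diluted filtrate peak areas with a DMSO reference standard and correcting for extinction coefficients. Samples were prepared from dried DMSO stock at 1 mg/mL nominal in pH 1.2 HCl, pH 6.5 or pH 7.4 phosphate (50 mM), and agitated 2 h.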

Data set [2] is described as follows: Chemical stability (relative purity loss) of peptide compounds in buffer formulations (Table 6). In kind it is physicochemical. Particulars: 2° C. and 37° C. The gist of the method:
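Compounds at 0.5 mg/mL in 50 mM HCl pH 1.2, 50 mM phosphate pH 6.5 or pH 7.4, each with acetonitrile (3:1), stored 24 hours at 2° C and 37° C. Purity measured by UHPLC-UV before and after. Stability expressed as relative purity loss.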

A short description of data set [3]: Protease stability in simulated intestinal fluids (FaSSIF) (Table 7). In kind it is in vitro ADME. To be noted: fassif with pancreatin, 37° C.; for remaining at 1 h, 1 µM: 60 min, read-out: Remaining percentage of peptide compound, FaSSIF 60 (min); for remaining at 2 h, 1 µM: 120 min, read-out: Remaining percentage of peptide compound, FaSSIF 120 (min); for remaining at 4 h, 1 µM: 240 min, read-out: Remaining percentage of peptide compound, FaSSIF 240 (min). The gist of the method: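 Percent parent remaining was derived from LC-MS/MS peak areas normalised to time 0, set at 100%. Sampling at 0, 60, 120 and 240 min, quenched in ethanol with 0.1% HCOOH. Final peptide 1 μM, 37° C, SIF containing pancreatin.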

The nature of data set [4]: Protease stability in simulated gastric fluids (FaSSGF) (Table 7). In kind it is in vitro ADME. Particulars: fassgf with pepsin, 60 min, 37° C., read-out: Remaining percentage of peptide compound, FaSSGF 60 (min). The gist of the method:
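Peptides at 1 μM final were incubated at 37 °C in simulated gastric fluid with pepsin (320 mg per 100 mL SGF concentrate). Samples were quenched with ethanol (0.1% HCOOH) at 0, 60, 120 and 240 min and analysed by LC-MS/MS. Percent remaining is the peak area relative to T0 (100%).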

Data set [5] relates to IL-23 induced STAT3 signaling (IL-23 receptor) in HEK-Blue IL-23 cells. As to the kind of experiment: Inhibition of IL-23 induced STAT3 signaling in HEK-Blue IL-23 cells, SEAP reporter (Table 9). Format: cell-based. Particulars: human IL23 0.25 ng/ml, overnight, read-out: Inhibition of IL-23 induced pSTAT3 (IC50 nM). Put shortly:
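STAT3-driven SEAP output measured at OD 620–655 nm after 45 min QUANTI-Blue development of supernatant, with dose-response fits. Peptides were given 60 min ahead of 0.25 ng/ml (final) human IL-23, followed by overnight culture at 37 °C; 10,000 HEK-Blue IL-23 cells per well.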

Setting [6] is: Buffer pH 1.1 (head; method: 50 mM HCl pH 1.2), 2 h agitation, read-out: Solubility, Buffer pH 1.1.
Setting [7] is: aqueous buffer, 50 mM phosphate buffer pH 6.5, 2 h agitation, read-out: Solubility, Buffer pH 6.5.
Setting [8] is: aqueous buffer, 50 mM phosphate buffer pH 7.4, 2 h agitation, read-out: Solubility, Buffer pH 7.4.
Setting [9] is: 50 mM phosphate buffer pH 6.5 + acetonitrile (3:1), read-out: Chemical stability (relative purity loss), Buffer pH 6.5.
Setting [10] is: 50 mM phosphate buffer pH 7.4 + acetonitrile (3:1), read-out: Chemical stability (relative purity loss), Buffer pH 7.4.
The mark [11] stands for this setting: 50 mm hcl + acetonitrile, Buffer pH 1.1 (head; method: 50 mM HCl pH 1.2 + acetonitrile 3:1), read-out: Chemical stability (relative purity loss), Buffer pH 1.1.

For `Cc1cccc2c(C[C@@H]3NC(=O)CCCCN(C)CCCCN(C)CCCC[C@@H](C(=O)NCC(=O)NCCc4cccnc4)NC(=O)C(C)(C)NC(=O)[C@H](Cc4ccc5ccccc5c4)NC(=O)[C@H](Cc4ccc(OCCN(C)C)cc4)NC(=O)C4(CCOCC4)NC(=O)[C@H](CC(C)C)NC3=O)cn(C)c12` [compound 49] ([X3]L[Thp]Y(Me2NCH2CH2)[2Nal][Aib][Lys(Me,(CH2)4NMe(CH2)4CO)]G-{NH(2-(3-pyridyl)ethyl)}; lactam N-7), the solubility (commonly the concentration that dissolves in the medium under given conditions) at 2 h in data set [1] (setting [6]) is not below 900 µg/mL; in data set [1] (setting [7]) it was 250 µg/mL (≈ 171 µM); in data set [1] (setting [8]), 40 µg/mL (≈ 27.4 µM). Besides, the degraded at 24 h in data set [2] (setting [9]), in data set [2] (setting [10]) and in data set [2] (setting [11]) was 0% in each case. Further, the amount remaining at 1 h, 1 µM in data set [3] was 100%; in data set [4] it was 99%. In data set [3], the fraction remaining at 2 h, 1 µM is 100%. Also, the amount remaining at 4 h, 1 µM in data set [3] is 101%. In data set [5], the IC50 (commonly the concentration at which inhibition is half-maximal) came out at 35.4 nM.
Take `CC(=O)NCCCC[C@@H]1NC(=O)[C@H](Cc2c[nH]c3c(C)cccc23)NC(=O)CCCCCCCCCCNC(=O)CC[C@@H](C(=O)N[C@@H](CC(N)=O)C(=O)N[C@@H](Cc2cccnc2)C(=O)N(C)CC(N)=O)NC(=O)C(C)(C)NC(=O)[C@H](Cc2ccc3ccccc3c2)NC(=O)[C@H](Cc2ccc(OCCN(C)C)cc2)NC(=O)C2(CCOCC2)NC1=O` [compound 16] ([Aun][Trp(7-Me)]K(Ac)[Thp]Y(Me2NCH2CH2)[2Nal][Aib]EN[3Pal][Sar]-NH2; lactam N-8): the solubility at 2 h in data set [1] (setting [6]) was not below 950 µg/mL; in data set [1] (setting [7]), 760 µg/mL (≈ 458 µM); in data set [1] (setting [8]) it was 260 µg/mL (≈ 157 µM). Besides, the degraded at 24 h in data set [2] (setting [9]) is 0%; in data set [2] (setting [10]), 0.6%; in data set [2] (setting [11]), 3.8%. Besides, the amount remaining at 1 h, 1 µM in data set [3] is 84%; in data set [4] it was 88%. In addition, the share remaining at 2 h, 1 µM in data set [3] was 85%. Further, the share remaining at 4 h, 1 µM in data set [3] is 84%. Also, the IC50 in data set [5] is 0.37 nM.
Regarding `Cc1cccc2c(C[C@@H]3NC(=O)CCCCCCCCCCNC(=O)CC[C@@H](C(=O)N[C@@H](CC(N)=O)C(=O)N[C@@H](Cc4cccnc4)C(=O)N(C)CC(N)=O)NC(=O)C(C)(C)NC(=O)[C@H](Cc4ccc5ccccc5c4)NC(=O)[C@H](Cc4ccc(OCCN(C)C)cc4)NC(=O)C(C)(C)NC(=O)[C@H](CCC(N)=O)NC3=O)c[nH]c12` [compound 35] ([Aun][Trp(7-Me)]Q[Aib]Y(Me2NCH2CH2)[2Nal][Aib]EN[3Pal][Sar]-NH2; lactam N-8), the solubility at 2 h was not below 870 µg/mL in data set [1] (setting [6]), 80 µg/mL (≈ 50.8 µM) in data set [1] (setting [7]) and 40 µg/mL (≈ 25.4 µM) in data set [1] (setting [8]). In addition, the degraded at 24 h in data set [2] (setting [9]) amounted to 0%; in data set [2] (setting [10]) it was 0%; in data set [2] (setting [11]), 7.4%. In addition, the amount remaining at 1 h, 1 µM in data set [3] was 89%; in data set [4] it was 86%. Also, the share remaining at 2 h, 1 µM in data set [3] is 88%. Moreover, the share remaining at 4 h, 1 µM in data set [3] was 87%. Also, the IC50 in data set [5] is 0.6 nM.
For `CC(=O)NCCCC[C@@H]1NC(=O)[C@H](Cc2c[nH]c3c(C)cccc23)NC(=O)CCCCCN(C)CCCCN(C)CCCC[C@@H](C(=O)N[C@@H](CC(N)=O)C(=O)N[C@@H](Cc2cccnc2)C(=O)N(C)CC(N)=O)NC(=O)[C@](C)(CCCCN(C)C)NC(=O)[C@H](Cc2ccc3ccccc3c2)NC(=O)[C@H](Cc2ccc(OCCN(C)C)cc2)NC(=O)C2(CCOCC2)NC1=O` [compound 34] ([Trp(7-Me)]K(Ac)[Thp]Y(Me2NCH2CH2)[2Nal][αMeLys(Me2)][Lys(Me,(CH2)4NMe(CH2)5CO)]N[3Pal][Sar]-NH2; lactam N-7), the solubility at 2 h was not below 1200 µg/mL in data set [1] (setting [6]), not below 1120 µg/mL in data set [1] (setting [7]) and not below 1120 µg/mL in data set [1] (setting [8]). Also, the degraded at 24 h in data set [2] (setting [9]), in data set [2] (setting [10]) and in data set [2] (setting [11]) was 0% throughout. Besides, the share remaining at 1 h, 1 µM in data set [3] is 98%; in data set [4], 94%. For the same compound, the share remaining at 2 h, 1 µM in data set [3] is 98%. For the same compound, in data set [3], the share remaining at 4 h, 1 µM was 100%. For the same compound, the half-inhibitory concentration (IC50) in data set [5] was 1.34 nM.
